Test results taken from patent US8865688B2, “Compositions and methods for treatment of bowel diseases with granulated mesalamine” (priority 2008, dated 2014).
Where two headings read alike, the source gives them in different places.

What was measured:
[1] = in vitro; details: plasma
[2] = molecular target: CYP3A4 (Homo sapiens, UniProt P08684); test: In vitro drug-drug interaction study, human liver microsomes; assay type: in vitro ADME
[3] = human, in vivo, 1600 mg
[4] = Single and multiple oral dose pharmacokinetics of 1.5 g granulated mesalamine formulation, crossover, healthy subjects, fasting; details: for AUC(0-t): AUC0-24, plasma, n = 24; for AUC(0-t) / Cmax: mean ±SD; for Tmax: median (range)
[5] = Detection in human breast milk; details: in vivo
[6] = molecular target: T1, CYP1A2 (Homo sapiens, UniProt P05177); test: In vitro drug-drug interaction study, human liver microsomes; assay type: in vitro ADME
T1 construct: In an in vitro study using human liver microsomes; from tissue; host or cells: human liver microsomes
T1 sequence (P05177 1-516): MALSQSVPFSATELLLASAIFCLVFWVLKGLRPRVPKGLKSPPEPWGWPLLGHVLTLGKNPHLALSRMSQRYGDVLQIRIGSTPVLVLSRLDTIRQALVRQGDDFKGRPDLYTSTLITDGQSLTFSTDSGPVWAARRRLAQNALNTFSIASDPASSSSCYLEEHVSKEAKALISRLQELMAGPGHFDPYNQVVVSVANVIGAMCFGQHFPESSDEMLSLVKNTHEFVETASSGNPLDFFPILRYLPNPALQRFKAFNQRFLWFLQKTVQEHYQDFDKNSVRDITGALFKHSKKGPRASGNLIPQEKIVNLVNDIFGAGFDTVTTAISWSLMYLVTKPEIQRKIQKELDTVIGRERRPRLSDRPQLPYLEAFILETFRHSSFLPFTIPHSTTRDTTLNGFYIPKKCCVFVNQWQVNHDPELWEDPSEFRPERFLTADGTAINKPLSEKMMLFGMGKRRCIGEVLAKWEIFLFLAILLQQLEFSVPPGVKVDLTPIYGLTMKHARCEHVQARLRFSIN

[7] = molecular target: CYP2C19 (Homo sapiens, UniProt P33261); test: as above; assay type: in vitro ADME
CYP2C19, sequence (P33261 whole entry): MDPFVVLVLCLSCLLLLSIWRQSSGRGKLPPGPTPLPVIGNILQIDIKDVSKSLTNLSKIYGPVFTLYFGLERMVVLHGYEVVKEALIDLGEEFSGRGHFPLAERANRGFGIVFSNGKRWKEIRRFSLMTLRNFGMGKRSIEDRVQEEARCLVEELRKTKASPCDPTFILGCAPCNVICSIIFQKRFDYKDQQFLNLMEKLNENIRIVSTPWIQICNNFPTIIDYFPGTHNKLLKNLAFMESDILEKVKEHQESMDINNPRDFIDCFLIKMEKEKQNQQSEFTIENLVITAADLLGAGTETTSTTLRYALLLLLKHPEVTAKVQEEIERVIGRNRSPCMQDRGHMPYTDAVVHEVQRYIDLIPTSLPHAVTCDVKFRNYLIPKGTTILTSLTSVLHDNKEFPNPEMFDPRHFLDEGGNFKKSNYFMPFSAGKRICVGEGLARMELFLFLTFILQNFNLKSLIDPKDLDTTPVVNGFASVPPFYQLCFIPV

[8] = Effect of high fat meal on absorption of 1.6 g mesalamine granules in sachet, crossover, healthy subjects; assay type: in vivo, human
[9] = Steady state pharmacokinetics, 3 treatments of 4 days: Asacol 800 mg BID, granulated mesalamine formulation 800 mg BID and 1600 mg QD; assay type: in vivo, human; details: for AUC / Cmax / Tmax: human, plasma, oral; for Tmax: median (range), read-out: Tmax
Experimental: In a study of 3 treatments in 3 study periods, each separated by a minimum washout of 7 days, treatments were administered orally, and were as follows:
Subjects received treatments A, B, and C, with each administered during one of the three 4-day study treatment periods.
Each treatment regimen lasted for 4 days and was followed by at least a 7 day washout period.

[10] = molecular target: CYP2C9 (Homo sapiens, UniProt P11712); test: In vitro drug-drug interaction study, human liver microsomes; assay type: in vitro ADME
CYP2C9, sequence (P11712 whole entry): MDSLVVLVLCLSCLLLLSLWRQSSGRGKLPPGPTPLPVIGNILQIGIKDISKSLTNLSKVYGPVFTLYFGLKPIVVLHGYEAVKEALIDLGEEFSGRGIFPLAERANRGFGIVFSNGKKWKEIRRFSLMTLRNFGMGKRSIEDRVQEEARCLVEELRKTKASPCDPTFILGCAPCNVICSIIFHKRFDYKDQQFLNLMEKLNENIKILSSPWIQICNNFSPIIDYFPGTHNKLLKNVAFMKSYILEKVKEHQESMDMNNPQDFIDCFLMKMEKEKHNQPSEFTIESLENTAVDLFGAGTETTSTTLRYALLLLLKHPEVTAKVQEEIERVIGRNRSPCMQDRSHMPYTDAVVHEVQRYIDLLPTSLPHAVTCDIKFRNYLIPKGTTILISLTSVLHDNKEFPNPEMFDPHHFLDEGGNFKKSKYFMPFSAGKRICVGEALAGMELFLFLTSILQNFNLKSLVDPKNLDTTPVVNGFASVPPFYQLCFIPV

[11] = molecular target: CYP2D6 (Homo sapiens, UniProt P10635); test: as above; assay type: in vitro ADME
CYP2D6, sequence (P10635 whole entry): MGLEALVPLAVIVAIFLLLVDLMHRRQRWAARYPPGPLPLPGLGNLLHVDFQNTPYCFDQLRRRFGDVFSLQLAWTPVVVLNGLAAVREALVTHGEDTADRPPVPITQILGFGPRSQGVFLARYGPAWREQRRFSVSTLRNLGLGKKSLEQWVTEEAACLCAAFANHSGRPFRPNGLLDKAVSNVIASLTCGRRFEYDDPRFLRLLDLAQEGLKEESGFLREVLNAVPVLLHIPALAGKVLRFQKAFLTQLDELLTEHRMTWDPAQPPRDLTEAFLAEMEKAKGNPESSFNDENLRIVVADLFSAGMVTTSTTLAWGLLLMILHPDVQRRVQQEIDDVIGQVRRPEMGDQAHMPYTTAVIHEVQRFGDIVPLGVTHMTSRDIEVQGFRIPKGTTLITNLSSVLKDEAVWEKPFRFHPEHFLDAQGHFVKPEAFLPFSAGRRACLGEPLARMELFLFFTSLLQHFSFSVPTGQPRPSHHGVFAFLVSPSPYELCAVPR

[12] = clinical; details: human, in vivo, 1600 mg
[13] = human, plasma, oral, 1.5 g, multiple dose 1.5 g QD, after 7 days
[14] = human, plasma, oral, 1.5 g, single dose 1.5 g
[15] = MP 1600 mg QD versus MP 800 mg BID, geometric mean ratio

CYP3A4, sequence (P08684 whole entry): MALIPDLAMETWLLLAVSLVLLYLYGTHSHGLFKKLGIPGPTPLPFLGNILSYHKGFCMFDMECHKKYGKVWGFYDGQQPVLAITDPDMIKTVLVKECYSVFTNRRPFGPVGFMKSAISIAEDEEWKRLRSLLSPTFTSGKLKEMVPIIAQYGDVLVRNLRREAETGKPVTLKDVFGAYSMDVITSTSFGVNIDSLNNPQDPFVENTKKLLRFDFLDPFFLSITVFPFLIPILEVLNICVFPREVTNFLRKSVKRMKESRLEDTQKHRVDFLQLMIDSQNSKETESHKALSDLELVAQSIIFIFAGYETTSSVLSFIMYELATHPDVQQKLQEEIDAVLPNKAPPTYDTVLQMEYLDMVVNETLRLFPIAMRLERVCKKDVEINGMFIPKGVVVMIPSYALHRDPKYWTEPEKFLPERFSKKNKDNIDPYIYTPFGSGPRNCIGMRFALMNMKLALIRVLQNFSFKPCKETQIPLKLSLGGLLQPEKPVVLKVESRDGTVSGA

With `CC(=O)Nc1ccc(O)c(C(=O)O)c1` [N-Ac-5-ASA, N-acetyl-5-aminosalicylic acid] the fraction unbound at 2.5 μg/mL [1] was 0.22, the “Inhibition of CYP3A4” value [2] was “not to inhibit” and the T1/2 [3] was 10.05 h. For the same compound, the “Increase in systemic exposure (AUC0-24) at steady state compared with a single dose” value ([4]; 1.5 g granulated mesalamine formulation) was 1.7 fold, the AUC(0-inf) ([4]; human, plasma, oral, 1.5 g) was 51 ± 23 µg·h/mL and the AUC(0-t) [4, 13] was 37 ± 9 µg·h/mL. It also gave an AUC(0-t) ([4]; human, plasma, oral, 1.5 g, single dose 1.5 g granulated mesalamine formulation, fasting) of 26 ± 6 µg·h/mL, a Cmax ([4]; human, plasma, oral, 1.5 g, plasma, multiple dose 1.5 g QD, after 7 days) of 3.4 ± 0.9 µg/mL and a Cmax [4, 14] of 2.8 ± 0.8 µg/mL. The half-life ([4]; human, plasma, oral, 1.5 g, Mean half-lives, following single and multiple doses of granulated mesalamine formulation) was 12 to 14 h, the Tmax [4, 13] was 5 h and the Tmax [4, 14] was 4 h. The half-life ([4]; human, plasma, oral, 1.5 g, t1/2, multiple dose 1.5 g QD, after 7 days, harmonic mean (pseudo SD)) was 14 ± 10 h, the half-life ([4]; human, plasma, oral, 1.5 g, t1/2, single dose 1.5 g, harmonic mean (pseudo SD)) was 12 ± 11 h and the “Concentration detected in human breast milk” value [5] was “higher concentrations”. For the same compound, the “Inhibition of CYP1A2” value [6] was “not to inhibit”, the “Inhibition of CYP2C19” value [7] was “not to inhibit” and the “Tmax following a high-fat meal” value ([8]; 1.6 g granulated mesalamine (2×0.8 g)) was “prolonged”. For the same compound, the “Effect of high fat meal on overall (rate and) extent of absorption” value ([8]; 1.6 g granules) was “not affected”, the “Effect of high fat meal on plasma Cmax” value ([8]; 1.6 g granules, fed vs fasted, 80%:125% rule) was “equivalent” and the “AUC C/B Ratio (90% CI)” value [9, 15] was 93 (78, 112). The “Cmax C/B Ratio (90% CI)” value [9, 15] was 118 (98, 143), the “Steady state plasma concentrations as measured by Cmax, QD compared to BID” value ([9]; granulated mesalamine formulation) was “higher” and the “Systemic exposure, QD versus BID regimen” value ([9]; granulated mesalamine formulation 1600 mg QD vs 800 mg BID) was “comparable”. For the same compound, the “Time to maximum drug concentrations, mean” value ([9]; granulated mesalamine formulation administered BID) was 11.68 h, the “Time to maximum drug concentrations, mean” value ([9]; granulated mesalamine formulation administered QD) was 5.21 h and the “Cmax ratio, QD compared to BID” value ([9]; granulated mesalamine formulation, steady state) was 118%. The AUC ([9]; 800 mg, AUC, AUCC, Day 4, after Asacol 800 mg BID, converted from μmol * h/L) was 30.7 ± 22.2 µg·h/mL, the AUC ([9]; 800 mg, AUCC, Day 4, after MP 800 mg BID, converted from μmol * h/L, read-out: AUC) was 46.4 ± 15.4 µg·h/mL and the AUC ([9]; 800 mg, AUCC, Day 4, after Treatment A Asacol 800 mg BID, mean ± SD, read-out: AUC) was 158 ± 114 µM·h. For the same compound, the AUC ([9]; 800 mg, AUCC, Day 4, after Treatment B MP 800 mg BID, mean ± SD, read-out: AUC) was 238 ± 79.1 µM·h, the Cmax ([9]; 800 mg, Day 4, after Asacol 800 mg BID, converted from μmol/L, mean ± SD) was 2.34 ± 1.8 µg/mL and the Cmax ([9]; 800 mg, Day 4, after MP 800 mg BID, converted from μmol/L, mean ± SD) was 3.61 ± 1.23 µg/mL. It also gave a Cmax ([9]; 800 mg, Day 4, after Treatment A Asacol 800 mg BID, n = 28, mean ± SD) of 12 ± 9.22 µM, a Cmax ([9]; 800 mg, Day 4, after Treatment B MP 800 mg BID, n = 28, mean ± SD) of 18.5 ± 6.31 µM and an AUC ([9]; 1600 mg, AUC0-24, Day 4, after MP 1600 mg QD, converted from μmol * h/L, read-out: AUC) of 45.9 ± 19.7 µg·h/mL. For the same compound, the AUC ([9]; 1600 mg, AUC0-24, Day 4, after Treatment C MP 1600 mg QD, mean ± SD, read-out: AUC) was 235 ± 101 µM·h, the Cmax ([9]; 1600 mg, Day 4, after MP 1600 mg QD, converted from μmol/L, mean ± SD) was 4.5 ± 1.82 µg/mL and the Cmax ([9]; 1600 mg, Day 4, after Treatment C MP 1600 mg QD, n = 28, mean ± SD) was 23.1 ± 9.35 µM. The Tmax ([9]; Day 4, after MP 800 mg BID, time from first dose) was 16 h, the Tmax ([9]; Day 4, after MP 1600 mg QD) was 3 h and the “Inhibition of CYP2C9” value [10] was “not to inhibit”. The “Inhibition of CYP2D6” value [11] was “not to inhibit” and the half-life [12] was 10.1 h.
